Consider one molecule from US8883199B2, “Administration regime for N-hydroxy-4-{2-[3-(N,N-dimethylaminomethyl)benzofuran-2-ylcarbonylamino]ethoxy}benzamide” (priority 2011, dated 2014).

For data set [1], the system named is patients with solid tumours. Kind of data set: Clinical Study 1: toxicity and efficacy in monotherapy, two p.o. administration regimes. The protocol: A clinical study was set up to test the toxicity and efficacy of N-hydroxy-4-{2-[3-(N,N-dimethylaminomethyl)benzofuran-2-ylcarbonylamino]ethoxy}benzamide hydrochloride. 36 patients with solid tumours were included and treated in this study. A first administration regime was tested over a cycle of three weeks, with 14 consecutive days of 2 p.o. administrations 4 hours apart, followed by a week without treatment. Four dosage levels were successively tested from 30 to 75 mg/m^2 (expressed as a salt) twice daily. The acceptability of the various N-hydroxy-4-{2-[3-(N,N-dimethylaminomethyl)-benzofuran-2-ylcarbonylamino]ethoxy}benzamide dose levels were evaluated (especially, haematological toxicities) at the end of the first cycle.
This cycle can be repeated as many times as necessary for treatment of the cancer.

The next data set relates to cultured tumour cells. The conditions noted are these: cultured tumour cells in vitro; cited from earlier work.
In data set [2] the test system is histone deacetylase (HDAC). The conditions noted are these: cited from earlier work.
Another data set relates to xenograft models. The following applies: in vivo; cited from earlier work.

Consider `CN(C)Cc1c(C(=O)NCCOc2ccc(C(=O)NO)cc2)oc2ccccc12` [N-hydroxy-4-{2-[3-(N,N-dimethylaminomethyl)benzofuran-2-ylcarbonylamino]ethoxy}benzamide], for which the maximum tolerated dose in data set [1] (first regime: 14 consecutive days of 2 p.o. administrations 4 hours apart, then a week without treatment, hydrochloride, dose expressed as a salt, 36 patients with solid tumours) is 75 mg/m^2 twice daily. In data set [1] (human, in vivo), the “platelet toxicity, second regime compared with first regime” value is listed as “less platelet toxicity than the previous regime” and the reversibility of thrombopenias entry is on record as “reversible”. Further, the “toxicities which limited increasing the dose” value in data set [1] (human, in vivo, 3 weeks) is reported as “grade 4 thrombopenias”. The recommended dose in data set [1] (human, in vivo, po, 3 weeks) is 90 mg/m^2 twice daily. Also, the maximum tolerated dose in data set [1] (second regime: 4 consecutive days of 2 p.o. administrations 4 hours apart, then 3 days without treatment, each of the 3 weeks of a cycle) amounted to 105 mg/m^2 twice daily. In addition, in the data set with cultured tumour cells, the apoptosis result is reported as “induces apoptosis” and the cell growth result is on record as “inhibition of cell growth”. The “histone deacetylase (HDAC) inhibition” value in data set [2] is “powerful”. The tumour growth entry with xenograft models is recorded as “inhibits tumour growth”.
